Measurements: ChEMBL document CHEMBL5247608, “HIV-1 gp120-CXCR4 recognition probed with synthetic nanomolar affinity D-peptides containing fragments of gp120 V3 loop” (Eur J Med Chem, 2022)
pIC50: −log10 of the molar value. Blank lines part the entries; values can stand above or below the molecule they belong to. Calls of active or inactive are those of the source. The rule behind the calls is not given here.

Columns and labels:
[1] = target: T1, C-X-C chemokine receptor type 4 (Homo sapiens, UniProt P61073); test: Displacement of 12G5 mAb from CXCR4 (unknown origin) expressed in CHO cells incubated for 40 mins by spectrophotometric method; format: cell-based
T1 sequence (P61073 whole entry): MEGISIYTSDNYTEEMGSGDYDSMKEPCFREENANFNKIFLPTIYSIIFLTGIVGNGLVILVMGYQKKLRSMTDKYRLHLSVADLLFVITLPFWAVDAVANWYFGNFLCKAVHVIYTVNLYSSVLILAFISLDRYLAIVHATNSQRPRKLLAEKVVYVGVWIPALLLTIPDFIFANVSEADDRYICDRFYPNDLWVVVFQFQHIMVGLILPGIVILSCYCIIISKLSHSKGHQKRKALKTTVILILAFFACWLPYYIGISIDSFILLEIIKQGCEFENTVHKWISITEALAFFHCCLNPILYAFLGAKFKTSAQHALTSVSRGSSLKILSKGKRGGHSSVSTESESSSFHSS

[2] = system: Human immunodeficiency virus 1; test: Antiviral activity against HIV-1 X4 NL4-3 infected in human PBMC assessed as inhibition of viral replication by measuring reduction in p24 antigen level at 10 uM measured after 5 days by ELISA; format: functional, organism-based; conditions: time 5.0 day
[3] = system: Human immunodeficiency virus 1; test: Antiviral activity against HIV-1 X4 NL4-3 infected in human PBMC assessed as inhibition of viral replication by measuring reduction in p24 antigen level measured after 5 days by ELISA; format: functional, organism-based; conditions: Human immunodeficiency virus 1, X4 NL4-3, PBMC, 120 h
[4] = system: Human immunodeficiency virus 1; test: Antiviral activity against HIV-1 R5 Bal-6 infected in human PBMC assessed as inhibition of viral replication by measuring reduction in p24 antigen level at 0.1 to 10 uM measured after 5 days by ELISA; format: functional, organism-based; conditions: dose 0.1-10 µM, time 5.0 day
[5] = Cytotoxicity against human PBMC assessed as reduction in cell viability at 0.016 to 10 uM incubated for 5 days by CellTiter-Blue assay; format: toxicity, cell-based; conditions: 120 h, dose 0.016-10 µM, time 5 day
[6] = target: T1, C-X-C chemokine receptor type 4; test: Antagonist activity against CXCR4 in human SUP-T1 cells assessed as inhibition of SDF-1alpha-induced intracellular calcium mobilization by Fluo-4AM dye based fluorescence analysis; format: cell-based; conditions: filed as antagonist, dose 0.01-10 µM
[7] = target: T1, C-X-C chemokine receptor type 4; test: Antagonist activity against CXCR4 in human SUP-T1 cells assessed as inhibition of SDF-1alpha-induced intracellular calcium mobilization at 10 uM by Fluo-4AM dye based fluorescence analysis; format: cell-based; conditions: filed as antagonist
[8] = target: T1, C-X-C chemokine receptor type 4; test: Antagonist activity against CXCR4 in human SUP-T1 cells assessed as inhibition of SDF-1alpha-induced cell migration preincubated with cells for 30 mins followed by incubation with SDF-1alpha for 3 hrs by CellTiter-96 reagent based transwell assay; conditions: filed as antagonist, time 210.0 min
[9] = target: T1, C-X-C chemokine receptor type 4; test: Antagonist activity against CXCR4 in human SUP-T1 cells assessed as inhibition of SDF-1alpha-induced cell migration at 10 uM preincubated with cells for 30 mins followed by incubation with SDF-1alpha for 3 hrs by CellTiter-96 reagent based transwell assay; conditions: filed as antagonist, time 210.0 min
[10] = target: T1, C-X-C chemokine receptor type 4; test: Antagonist activity against EGFP-tagged CXCR4 (unknown origin) transfected in CHO cells assessed as inhibition of SDF-1alpha-induced receptor internalization at 0.01 to 10 uM preincubated for 10 mins followed by SDF-1alpha addition by confocal microscopy; format: cell-based; conditions: filed as antagonist, dose 0.01-10 µM
[11] = target: T1, C-X-C chemokine receptor type 4; test: Antagonist activity against EGFP-tagged CXCR4 (unknown origin) transfected in CHO cells assessed as inhibition of SDF-1alpha-induced receptor internalization at 10 uM preincubated for 10 mins followed by SDF-1alpha addition by confocal microscopy; format: cell-based; conditions: filed as antagonist
[12] = system: Human immunodeficiency virus 1; test: Antiviral activity against HIV-1 R5 Bal-6 infected in human PBMC assessed as inhibition of viral replication by measuring reduction in p24 antigen level at 10 uM measured after 5 days by ELISA; format: functional, organism-based; conditions: time 5.0 day
[13] = system: C-X-C chemokine receptor type 4 (Homo sapiens), P61073 [F87A]; test: Displacement of 12G5 mAb from CXCR4 F87A mutant (unknown origin) expressed in CHO cells at 200 nM incubated for 40 mins by spectrophotometric method; format: cell-based
Sequence of C-X-C chemokine receptor type 4 (Homo sapiens), P61073 [F87A] (P61073 whole entry F87A): as the sequence (P61073 whole entry) above, with F87A counted along it

[14] = system: C-X-C chemokine receptor type 4 (Homo sapiens), P61073 [W94A]; test: Displacement of 12G5 mAb from CXCR4 W94A mutant (unknown origin) expressed in CHO cells at 200 nM incubated for 40 mins by spectrophotometric method; format: cell-based
Sequence of C-X-C chemokine receptor type 4 (Homo sapiens), P61073 [W94A] (P61073 whole entry W94A): as the sequence (P61073 whole entry) above, with W94A counted along it

[15] = system: C-X-C chemokine receptor type 4 (Homo sapiens), P61073 [N119A]; test: Displacement of 12G5 mAb from CXCR4 N119A mutant (unknown origin) expressed in CHO cells at 200 nM incubated for 40 mins by spectrophotometric method; format: cell-based
Sequence of C-X-C chemokine receptor type 4 (Homo sapiens), P61073 [N119A] (P61073 whole entry N119A): as the sequence (P61073 whole entry) above, with N119A counted along it

[16] = system: C-X-C chemokine receptor type 4 (Homo sapiens), P61073 [H113A]; test: Displacement of 12G5 mAb from CXCR4 H113A mutant (unknown origin) expressed in CHO cells at 200 nM incubated for 40 mins by spectrophotometric method; format: cell-based
Sequence of C-X-C chemokine receptor type 4 (Homo sapiens), P61073 [H113A] (P61073 whole entry H113A): as the sequence (P61073 whole entry) above, with H113A counted along it

[17] = system: C-X-C chemokine receptor type 4 (Homo sapiens), P61073 [W161A]; test: Displacement of 12G5 mAb from CXCR4 W161A mutant (unknown origin) expressed in CHO cells at 200 nM incubated for 40 mins by spectrophotometric method; format: cell-based
Sequence of C-X-C chemokine receptor type 4 (Homo sapiens), P61073 [W161A] (P61073 whole entry W161A): as the sequence (P61073 whole entry) above, with W161A counted along it

[18] = system: C-X-C chemokine receptor type 4 (Homo sapiens), P61073 [D193A]; test: Displacement of 12G5 mAb from CXCR4 D193A mutant (unknown origin) expressed in CHO cells at 200 nM incubated for 40 mins by spectrophotometric method; format: cell-based
Sequence of C-X-C chemokine receptor type 4 (Homo sapiens), P61073 [D193A] (P61073 whole entry D193A): as the sequence (P61073 whole entry) above, with D193A counted along it

[19] = system: C-X-C chemokine receptor type 4 (Homo sapiens), P61073 [W195A]; test: Displacement of 12G5 mAb from CXCR4 W195A mutant (unknown origin) expressed in CHO cells at 200 nM incubated for 40 mins by spectrophotometric method; format: cell-based
Sequence of C-X-C chemokine receptor type 4 (Homo sapiens), P61073 [W195A] (P61073 whole entry W195A): as the sequence (P61073 whole entry) above, with W195A counted along it

[20] = system: C-X-C chemokine receptor type 4 (Homo sapiens), P61073 [D262N]; test: Displacement of 12G5 mAb from CXCR4 D262N mutant (unknown origin) expressed in CHO cells at 200 nM incubated for 40 mins by spectrophotometric method; format: cell-based
Sequence of C-X-C chemokine receptor type 4 (Homo sapiens), P61073 [D262N] (P61073 whole entry D262N): as the sequence (P61073 whole entry) above, with D262N counted along it

[21] = system: C-X-C chemokine receptor type 4 (Homo sapiens), P61073 [E288A]; test: Displacement of 12G5 mAb from CXCR4 E288A mutant (unknown origin) expressed in CHO cells at 200 nM incubated for 40 mins by spectrophotometric method; format: cell-based
Sequence of C-X-C chemokine receptor type 4 (Homo sapiens), P61073 [E288A] (P61073 whole entry E288A): as the sequence (P61073 whole entry) above, with E288A counted along it

[22] = system: C-X-C chemokine receptor type 4 (Homo sapiens), P61073 [E288D]; test: Displacement of 12G5 mAb from CXCR4 E288D mutant (unknown origin) expressed in CHO cells at 200 nM incubated for 40 mins by spectrophotometric method; format: cell-based
Sequence of C-X-C chemokine receptor type 4 (Homo sapiens), P61073 [E288D] (P61073 whole entry E288D): as the sequence (P61073 whole entry) above, with E288D counted along it

[23] = system: C-X-C chemokine receptor type 4 (Homo sapiens), P61073 [Y45A]; test: Displacement of 12G5 mAb from CXCR4 Y45A mutant (unknown origin) expressed in CHO cells at 200 nM incubated for 40 mins by spectrophotometric method; format: cell-based; conditions: filed as antagonist
Sequence of C-X-C chemokine receptor type 4 (Homo sapiens), P61073 [Y45A] (P61073 whole entry Y45A): as the sequence (P61073 whole entry) above, with Y45A counted along it

[24] = system: C-X-C chemokine receptor type 4 (Homo sapiens), P61073 [T117A]; test: Displacement of 12G5 mAb from CXCR4 T117A mutant (unknown origin) expressed in CHO cells at 200 nM incubated for 40 mins by spectrophotometric method; format: cell-based; conditions: filed as antagonist
Sequence of C-X-C chemokine receptor type 4 (Homo sapiens), P61073 [T117A] (P61073 whole entry T117A): as the sequence (P61073 whole entry) above, with T117A counted along it

[25] = system: C-X-C chemokine receptor type 4 (Homo sapiens), P61073 [D171A]; test: Displacement of 12G5 mAb from CXCR4 D171A mutant (unknown origin) expressed in CHO cells at 200 nM incubated for 40 mins by spectrophotometric method; format: cell-based; conditions: filed as antagonist
Sequence of C-X-C chemokine receptor type 4 (Homo sapiens), P61073 [D171A] (P61073 whole entry D171A): as the sequence (P61073 whole entry) above, with D171A counted along it

pIC50 [1]: 7.57
pIC50 [3]: 4.96
Structure (SMILES): CC(C)C[C@@H](N)C(=O)NCC(=O)N[C@H](C)C(=O)N[C@H](CO)C(=O)N[C@H](Cc1c[nH]c2ccccc12)C(=O)N[C@H](Cc1cnc[nH]1)C(=O)N[C@H](CCCNC(=N)N)C(=O)N1CCC[C@@H]1C(=O)N[C@H](CC(=O)O)C(=O)N[C@H](CCCCN)C(=O)N[C@H](CCCCN)C(=O)N[C@H](CCCNC(=N)N)C(=O)N(CCCCCC(=O)O)[C@H](CCCCN[C@@H](CS)C(=O)N[C@@H](C(=O)N[C@H](CCCNC(=N)N)C(=O)N1CCC[C@@H]1C(=O)N[C@H](CC(N)=O)C(=O)N[C@H](CC(N)=O)C(=O)N[C@H](CC(N)=O)C(=O)N[C@@H](C(=O)N[C@H](CCCCN)C(=O)N[C@H](CCCNC(=N)N)C(N)=O)[C@@H](C)O)[C@@H](C)O)C(N)=O
Activity [2]: Active
Activity [4]: inactive
Activity [5]: Non-Toxic

Structure (SMILES): CC(C)C[C@@H](N)C(=O)NCC(=O)N[C@H](C)C(=O)N[C@H](CO)C(=O)N[C@H](Cc1c[nH]c2ccccc12)C(=O)N[C@H](Cc1cnc[nH]1)C(=O)N[C@H](CCCNC(=N)N)C(=O)N1CCC[C@@H]1C(=O)N[C@H](CC(=O)O)C(=O)N[C@H](CCCCN)C(=O)N[C@H](CCCCN)C(=O)N[C@H](CCCNC(=N)N)C(=O)N(CCCCCC(=O)O)[C@H](CCCCN)C(=O)N[C@H](CCCNC(=N)N)C(=O)N[C@H](CCCCN)C(=O)N[C@H](CCC(N)=O)C(=O)N[C@H](CCCNC(=N)N)C(=O)NCC(=O)N1CCC[C@@H]1C(=O)NCC(=O)N[C@H](CCCNC(=N)N)C(=O)N[C@H](C)C(=O)N[C@H](Cc1ccccc1)C(N)=O
pIC50 [1]: 7.36
inhibition [6]: Dose-Dependent Effect
inhibition [7]: 100%
inhibition [8]: Dose-Dependent Effect
inhibition [9]: 100%
inhibition [10]: Active
inhibition [11]: 100%
Activity [2]: Active
Activity [12]: Active
Activity [5]: Non-Toxic
inhibition [13]: inactive
inhibition [14]: inactive
inhibition [15]: inactive
inhibition [16]: inactive
inhibition [17]: inactive
inhibition [18]: inactive
inhibition [19]: inactive
inhibition [20]: inactive
inhibition [21]: inactive
inhibition [22]: inactive
inhibition [23]: Active
inhibition [24]: Active
inhibition [25]: Active
